This experiment addresses T1, sGC α1/β1 heterodimer (Homo sapiens, UniProt Q02108+Q02153).
T1 construct: expressed in transfected cells
T1 sequence (Q02108 1-690): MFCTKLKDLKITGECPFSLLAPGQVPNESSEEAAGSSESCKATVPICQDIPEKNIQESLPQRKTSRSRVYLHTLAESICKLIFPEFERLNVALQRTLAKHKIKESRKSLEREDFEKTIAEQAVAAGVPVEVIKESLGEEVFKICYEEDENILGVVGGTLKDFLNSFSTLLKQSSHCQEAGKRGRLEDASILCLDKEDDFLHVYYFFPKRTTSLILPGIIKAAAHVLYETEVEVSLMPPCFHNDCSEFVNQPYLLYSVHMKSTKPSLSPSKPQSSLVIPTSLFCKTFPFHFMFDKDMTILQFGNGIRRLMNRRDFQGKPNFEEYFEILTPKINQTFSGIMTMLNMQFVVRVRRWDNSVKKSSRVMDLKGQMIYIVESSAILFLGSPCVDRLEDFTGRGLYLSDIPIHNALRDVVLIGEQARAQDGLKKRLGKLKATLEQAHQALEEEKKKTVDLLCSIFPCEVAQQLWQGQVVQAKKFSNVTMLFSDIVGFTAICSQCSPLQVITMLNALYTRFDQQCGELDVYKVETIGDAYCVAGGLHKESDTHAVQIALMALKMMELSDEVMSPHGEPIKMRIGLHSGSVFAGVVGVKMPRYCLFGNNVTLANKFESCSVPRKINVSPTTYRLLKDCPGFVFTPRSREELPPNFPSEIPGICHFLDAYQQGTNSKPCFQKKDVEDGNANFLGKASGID
T1 sequence (Q02153 1-619): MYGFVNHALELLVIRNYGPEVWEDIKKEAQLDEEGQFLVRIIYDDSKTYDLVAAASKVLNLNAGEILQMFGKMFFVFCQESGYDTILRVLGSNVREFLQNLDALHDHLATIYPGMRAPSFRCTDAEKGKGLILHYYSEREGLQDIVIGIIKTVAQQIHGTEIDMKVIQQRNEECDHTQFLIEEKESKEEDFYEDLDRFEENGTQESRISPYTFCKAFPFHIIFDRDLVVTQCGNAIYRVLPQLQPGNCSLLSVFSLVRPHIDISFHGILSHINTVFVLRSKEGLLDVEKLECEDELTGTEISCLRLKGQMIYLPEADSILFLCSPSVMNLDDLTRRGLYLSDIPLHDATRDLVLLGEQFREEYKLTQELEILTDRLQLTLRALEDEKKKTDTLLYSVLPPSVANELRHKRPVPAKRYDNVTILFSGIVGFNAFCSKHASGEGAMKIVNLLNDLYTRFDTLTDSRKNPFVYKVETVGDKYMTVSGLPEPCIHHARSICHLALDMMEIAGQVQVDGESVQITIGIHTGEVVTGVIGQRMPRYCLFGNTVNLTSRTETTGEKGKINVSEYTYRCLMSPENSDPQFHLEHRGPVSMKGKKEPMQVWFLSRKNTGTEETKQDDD
Nature of the experiment: Cell-Based sGC Functional Assay (CASA Assay). The following applies: CHO-K1/sGC cells; for EC50: intracellular cGMP by HTRF, 1 hr at 37° C., IP from 4P fit, presence or absence of 1 μM DETA-NO not given; for Emax: cGMP as percentage of maximum cGMP production of Compound A (=100% activation), read-out: % ACT (percent activation). From the text: Biological Assays: Cell-Based sGC Functional Assay (CASA Assay)
sGC is a heme-containing enzyme that converts GTP to secondary messenger cGMP. Increases in cGMP levels affect several physiological processes including vasorelaxation through multiple downstream pathways. […] Heme-dependent activators (HDAs) preferentially activate sGC containing a ferrous heme group. To determine the effect of sGC activators on enzyme activity, the CASA assay was developed to monitor the generation of cGMP in a cell line that stably expresses the heterodimeric sGC protein.
A CHO-K1 cell line stably expressing the sGC α1/β1 heterodimer was generated using a standard transfection protocol. CHO-K1 cells were transfected with plasmids pIREShyghsGCα1 and pIRESneo-hsGCβ1 simultaneously using FUGENE reagent. Clones that stably express both subunits were selected with hygromycin and neomycin for ˜2 weeks. Clone #7 was chosen for the assay and was designated CHO-K1/sGC. CHO-K1/sGC cells were maintained in F-K12 medium containing 10% heat-inactivated Fetal Bovine Serum (FBS), 100 μg/mL penicillin/streptomycin, 0.5 mg/mL hygromycin and 0.25 mg/mL G418. The cells were then cryopreserved in LN2. On the day of the assay, cells were thawed and resuspended in EBSS Assay Buffer (EAB, Sigma, E3024) supplemented with 5 mM MgCl2, 10 mM HEPES (4-(2-hydroxyethyl)piperazine-1-ethanesulfonic acid) and 0.05% BSA (bovine serum albumin) and cell density was then adjusted to 4×10^5/mL with EAB. IBMX (3-isobutyl-1-methylxanthin, 0.5 mM) was added to inhibit degradation of cGMP. Compounds were diluted from DMSO stock solutions and added to the assay at a final DMSO concentration of 2.5%. Cells were incubated with compounds in the presence and absence of 1 μM of Diethylenetriamine/nitric oxide adduct (DETA-NO; Sigma, 17018) for 1 hr at 37° C. At the end of the incubation period, the reaction was terminated and the cells were lysed with the detection reagents from Cisbio Kits. The level of intracellular cGMP was determined using an HTRF-based assay kit (CisBio, 62GM2PEC), which detects the displacement of a fluorescence labeled cGMP from its specific antibody. The cGMP produced by test compounds was directly compared to the maximum cGMP production (this value was set to equal 100% activation) of the published sGC-HDA Compound A:
[drawing 123] (Example 1 in WO 2010/065275, published Jun. 10, 2010). The test compounds' activity was then expressed as a percentage of Compound A, the standard in every experiment. This percent activation was calculated either in the presence or absence of DETA-NO which was then plotted. IP and maximum fold induction was derived using ADA analysis software for 4P fit.

This passage reports EC50 and Emax results from patent US9783552B2, “Soluble guanylate cyclase activators” (MERCK SHARP & DOHME CORP., priority 2013, dated 2017).

Each structure is given as a SMILES string.

Consider `[2H]C([2H])([2H])n1ncc2c(-c3nc(N)c4c(n3)NC(=O)C4(CC)C(N)=O)nc(CCC(F)(F)C(F)(F)F)nc21` (single isomer, unassigned) [Example 36, 4-Amino-5-ethyl-2-(6-(3,3,4,4,4-pentafluorobutyl)-1-trideuteriomethyl-1H-pyrazolo[3,4-d]pyrimidin-4-yl)-6-oxo-6,7-dihydro-5H-pyrrolo[2,3-d]pyrimidine-5-carboxamide], for which the EC50 (usually the concentration giving half of the maximal effect) amounted to 878 nM and the Emax amounted to 121%.
Turning to `[2H]C([2H])([2H])n1ncc2c(-c3nc(N)c4c(n3)NC(=O)C4(C(N)=O)C(C)C)nc(CCC(F)(F)C(F)(F)F)nc21` (single isomer, unassigned) [Example 37, 4-Amino-5-isopropyl-2-(6-(3,3,4,4,4-pentafluorobutyl)-1-trideuteriomethyl-1H-pyrazolo[3,4-d]pyrimidin-4-yl)-6-oxo-6,7-dihydro-5H-pyrrolo[2,3-d]pyrimidine-5-carboxamide], it took 540 nM to reach a half-maximal effect (EC50) and the Emax amounted to 93%.
For `CCn1ncc2c(-c3nc(N)c4c(n3)NC(=O)C4(C(=O)NC3CC3)C3CC3)nc(CCC(F)(F)C(F)(F)F)nc21` (single isomer, unassigned) [Example 38, 4-Amino-N,5-dicyclopropyl-2-(1-ethyl-6-(3,3,4,4,4-pentafluorobutyl)-1H-pyrazolo[3,4-d]pyrimidin-4-yl)-6-oxo-6,7-dihydro-5H-pyrrolo[2,3-d]pyrimidine-5-carboxamide] the same measures were 648 nM and 112%.
On the same counts, the results for `[2H]C([2H])([2H])n1ncc2c(-c3nc(N)c4c(n3)NC(=O)C4(C)C(=O)NCC)nc(CCC(F)(F)C(F)(F)F)nc21` (single isomer, unassigned) [Example 39, 4-Amino-N-ethyl-5-methyl-2-(6-(3,3,4,4,4-pentafluorobutyl)-1-trideuteriomethyl-1H-pyrazolo[3,4-d]pyrimidin-4-yl)-6-oxo-6,7-dihydro-5H-pyrrolo[2,3-d]pyrimidine-5-carboxamide] are 43 nM and 104%.
On the same counts, the results for `Cn1ncc2c(-c3nc(N)c4c(n3)NC(=O)C4(C)C(=O)NC3CC3)nc(Cc3cccc(F)c3F)nc21` (single isomer, unassigned) [Example 40, 4-Amino-N-cyclopropyl-2-(6-(2,3-difluorobenzyl)-1-methyl-1H-pyrazolo[3,4-d]pyrimidin-4-yl)-5-methyl-6-oxo-6,7-dihydro-5H-pyrrolo[2,3-d]pyrimidine-5-carboxamide] are 55 nM and 121%.
For `[2H]C([2H])([2H])n1ncc2c(-c3nc(N)c4c(n3)NC(=O)C4(C(=O)Nc3ccccn3)C3CC3)nc(CCC(F)(F)C(F)(F)F)nc21` (single isomer, unassigned) [Example 41, 4-Amino-5-cyclopropyl-2-(6-(3,3,4,4,4-pentafluorobutyl)-1-trideuteriomethyl-1H-pyrazolo[3,4-d]pyrimidin-4-yl)-6-oxo-N-(pyridin-2-yl)-6,7-dihydro-5H-pyrrolo[2,3-d]pyrimidine-5-carboxamide], the response was half-maximal at 77 nM (EC50) and the Emax turned out to be 100%.
As for `[2H]C([2H])([2H])n1ncc2c(-c3nc(N)c4c(n3)NC(=O)C4(C)C(=O)Nc3cnn(C)c3)nc(CCC(F)(F)C(F)(F)F)nc21` (single isomer, unassigned) [Example 42, 4-amino-5-methyl-N-(1-methyl-1H-pyrazol-4-yl)-2-(6-(3,3,4,4,4-pentafluorobutyl)-1-trideuteriomethyl-1H-pyrazolo[3,4-d]pyrimidin-4-yl)-6-oxo-6,7-dihydro-5H-pyrrolo[2,3-d]pyrimidine-5-carboxamide], a half-maximal response (EC50) required 111 nM and the Emax came out at 134%.
For `[2H]C([2H])([2H])n1ncc2c(-c3nc(N)c4c(n3)NC(=O)C4(C)c3ccc(O)cc3)nc(CCC(F)(F)C(F)(F)F)nc21` (single isomer, unassigned) [Example 43, 4-Amino-5-(4-hydroxyphenyl)-5-methyl-2-(6-(3,3,4,4,4-pentafluorobutyl)-1-trideuteriomethyl-1H-pyrazolo[3,4-d]pyrimidin-4-yl)-5H-pyrrolo[2,3-d]pyrimidin-6(7H)-one] the same measures were 209 nM and 110%.
On the same counts, the results for `[2H]C([2H])([2H])n1ncc2c(-c3nc(N)c4c(n3)NC(=O)C4(C)c3ccc(-c4nnco4)cc3)nc(CCC(F)(F)C(F)(F)F)nc21` (single isomer, unassigned) [Example 45, 5-(4-(1,3,4-Oxadiazol-2-yl)phenyl)-4-amino-5-methyl-2-(1-methyl-6-(3,3,4,4,4-pentafluorobutyl)-1H-pyrazolo[3,4-d]pyrimidin-4-yl)-5H-pyrrolo[2,3-d]pyrimidin-6(7H)-one] are 716 nM and 138%.
Take `[2H]C([2H])([2H])n1ncc2c(-c3nc(N)c4c(n3)NC(=O)C4(C)c3ccc(-c4cnn(C)c4)cc3)nc(CCC(F)(F)C(F)(F)F)nc21` (single isomer, unassigned) [Example 46, 4-Amino-5-methyl-5-(4-(1-methyl-1H-pyrazol-4-yl)phenyl)-2-(6-(3,3,4,4,4-pentafluorobutyl)-1-trideuteriomethyl-1H-pyrazolo[3,4-d]pyrimidin-4-yl)-5H-pyrrolo[2,3-d]pyrimidin-6(7H)-one]: the concentration for a half-maximal effect (EC50) is 90 nM and the Emax came to 91%.
On the same counts, the results for `[2H]C([2H])([2H])n1ncc2c(-c3nc(N)c4c(n3)NC(=O)C4(C)c3ccc(C#N)cc3)nc(CCC(F)(F)C(F)(F)F)nc21` (single isomer, unassigned) [Example 47, 4-(4-Amino-5-methyl-2-(6-(3,3,4,4,4-pentafluorobutyl)-1-trideuteriomethyl-1H-pyrazolo[3,4-d]pyrimidin-4-yl)-6-oxo-6,7-dihydro-5H-pyrrolo[2,3-d]pyrimidin-5-yl)benzonitrile] are 30 nM and 95%.
For `Cn1ncc2c(-c3nc(N)c4c(n3)NC(=O)C4(C)C#N)nc(CCC(F)(F)C(F)(F)F)nc21` (single isomer, unassigned) [Example 49, 4-Amino-5-methyl-2-(1-methyl-6-(3,3,4,4,4-pentafluorobutyl)-1H-pyrazolo[3,4-d]pyrimidin-4-yl)-6-oxo-6,7-dihydro-5H-pyrrolo[2,3-d]pyrimidine-5-carbonitrile], a half-maximal response (EC50) required 248 nM and the Emax was determined as 105%.
